# Experimental data published in US20200079766A1, “MONOCYCLIC OGA INHIBITOR COMPOUNDS” (Janssen Pharmaceutica NV, priority 2016, published 2020).
# Read-outs that look alike come from different tables or passages of the source.
# Tests used:
# [1] = system: OGA in HEK293 cells inducible for P301L mutant human Tau (isoform 2N4R); experiment: OGA cellular assay: immunocytochemical detection of O-GlcNAcylated proteins (CTD110.6 antibody) after 6 h incubation; type: cell-based; details: for Emax / EC50: Homo sapiens, HEK293, 6 h; for Emax / Cellular Emax (%): maximum = Thiamet G 200 uM; for EC50: read-out: Cellular hOGA, pEC50 (converted)
# Description: HEK293 cells inducible for P301L mutant human Tau (isoform 2N4R) were established at Janssen. Thiamet-G was used for both plate validation (high control) and as reference compound (reference EC50 assay validation). OGA inhibition is evaluated through the immunocytochemical (ICC) detection of O-GlcNAcylated proteins by the use of a monoclonal antibody (CTD110.6; Cell Signaling, #9875) detecting O-GlcNAcylated residues as previoulsy described (Dorfmueller et al. 2010 Chemistry & biology, 17:1250). Inhibition of OGA will result in an increase of O-GlcNAcylated protein levels resulting in an increased signal in the experiment. Cell nuclei are stained with Hoechst to give a cell culture quality control and a rough estimate of immediate compounds toxicity, if any. ICC pictures are imaged with a Perkin Elmer Opera Phenix plate microscope and quantified with the provided software Perkin Elmer Harmony 4.1.
# Cells were propagated in DMEM high Glucose (Sigma, # D5796) following standard procedures. 2 days before the cell assay cells are split, counted and seeded in Poly-D-Lysine (PDL) coated 96-wells (Greiner, #655946) plate at a cell density of 12,000 cells per cm^2 (4,000 cells per well) in 100 μl of Assay Medium (Low Glucose medium is used to reduce basal levels of GlcNAcylation) (Park et al. 2014 The Journal of biological chemistry 289:13519). At the day of compound test medium from assay plates was removed and replenished with 90 μl of fresh Assay Medium. 10 μl of compounds at a 10 fold final concentration were added to the wells. Plates were centrifuged shortly before incubation in the cell incubator for 6 hours. DMSO concentration was set to 0.2%. Medium is discarded by applying vacuum. For staining of cells medium was removed and cells washed once with 100 μl D-PBS (Sigma, # D8537). From next step onwards unless other stated assay volume was always 50 μl and incubation was performed without agitation and at room temperature. Cells were fixed in 50 μl of a 4% paraformaldehyde (PFA, Alpha aesar, #043368) PBS solution for 15 minutes at room temperature. […] Before analysis samples were washed 2 times manually for 5 minutes in ICC base buffer.
# Imaging is performed using Perkin Elmer Phenix Opera using a water 20× objective and recording 9 fields per well. Intensity readout at 488 nm is used as a measure of O-GlcNAcylation level of total proteins in wells. To assess potential toxicity of compounds nuclei were counted using the Hoechst staining. IC50-values are calculated using parametric non-linear regression model fitting. As a maximum inhibition Thiamet G at a 200 uM concentration is present on each plate. In addition, a concentration response of Thiamet G is calculated on each plate.
# [2] = target: T1, recombinant human Meningioma Expressed Antigen 5 (MGEA5), also referred to as O-GlcNAcase (OGA) (Homo sapiens, UniProt O60502); experiment: OGA biochemical assay: inhibition of FM-GlcNAc hydrolysis, fluorescence; protocol A (10 nM OGA, 1 h) or protocol B (2 nM OGA, 6 h); details: for IC50: read-out: Enzymatic hOGA, pIC50 (converted)
# T1 construct: Full length OGA enzyme was purchased at OriGene (cat # TP322411); purchased OriGene TP322411
# T1 sequence (O60502 1-916): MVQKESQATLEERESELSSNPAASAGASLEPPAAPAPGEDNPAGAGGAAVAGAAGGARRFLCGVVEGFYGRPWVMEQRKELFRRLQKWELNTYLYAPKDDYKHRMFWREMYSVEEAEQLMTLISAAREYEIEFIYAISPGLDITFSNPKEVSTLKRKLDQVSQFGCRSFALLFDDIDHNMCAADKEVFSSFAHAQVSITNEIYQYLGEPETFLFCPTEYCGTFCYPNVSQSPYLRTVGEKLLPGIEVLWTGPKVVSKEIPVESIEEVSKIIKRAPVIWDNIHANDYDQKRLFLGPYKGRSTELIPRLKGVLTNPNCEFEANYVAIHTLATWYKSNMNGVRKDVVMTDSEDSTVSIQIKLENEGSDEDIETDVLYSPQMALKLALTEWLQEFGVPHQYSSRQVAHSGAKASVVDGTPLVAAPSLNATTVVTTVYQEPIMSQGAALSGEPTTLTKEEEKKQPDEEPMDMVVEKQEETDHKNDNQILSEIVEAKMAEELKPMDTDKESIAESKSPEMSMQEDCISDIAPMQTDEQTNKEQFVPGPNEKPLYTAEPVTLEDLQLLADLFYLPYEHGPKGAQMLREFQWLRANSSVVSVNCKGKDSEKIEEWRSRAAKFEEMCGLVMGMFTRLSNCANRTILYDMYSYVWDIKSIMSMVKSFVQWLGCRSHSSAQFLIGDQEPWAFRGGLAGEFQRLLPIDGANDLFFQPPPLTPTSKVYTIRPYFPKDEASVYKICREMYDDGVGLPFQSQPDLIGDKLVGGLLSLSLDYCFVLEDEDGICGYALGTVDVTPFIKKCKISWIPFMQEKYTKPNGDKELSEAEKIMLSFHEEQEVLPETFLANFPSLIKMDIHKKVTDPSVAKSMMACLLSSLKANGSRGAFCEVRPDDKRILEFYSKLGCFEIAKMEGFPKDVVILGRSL
# From the text: The assay is based on the inhibition of the hydrolysis of fluorescein mono-3-D-N-Acetyl-Glucosamine (FM-GlcNAc) (Mariappa et al. 2015, Biochem J 470:255) by the recombinant human Meningioma Expressed Antigen 5 (MGEA5), also referred to as O-GlcNAcase (OGA). The hydrolysis FM-GlcNAc (Marker Gene technologies, cat # M1485) results in the formation of ß-D-N-glucosamineacetate and fluorescein. The fluorescence of the latter can be measured at excitation wavelength 485 nm and emission wavelength 538 nm. An increase in enzyme activity results in an increase in fluorescence signal. Full length OGA enzyme was purchased at OriGene (cat # TP322411). The enzyme was stored in 25 mM Tris.HCl, pH 7.3, 100 mM glycine, 10% glycerol at −20° C. Thiamet G and GlcNAcStatin were tested as reference compounds (Yuzwa et al. 2008 Nature Chemical Biology 4:483; Yuzwa et al. 2012 Nature Chemical Biology 8:393). The assay was performed in 200 mM Citrate/phosphate buffer supplemented with 0.005% Tween-20. 35.6 g Na2HPO42H2O (Sigma, # C0759) were dissolved in 1 L water to obtain a 200 mM solution. 19.2 g citric acid (Merck, #1.06580) was dissolved in 1 L water to obtain a 100 mM solution. pH of the sodiumphosphate solution was adjusted with the citric acid solution to 7.2. The buffer to stop the reaction consists of a 500 mM Carbonate buffer, pH 11.0. 734 mg
# FM-GlcNAc were dissolved in 5.48 mL DMSO to obtain a 250 mM solution and was stored at −20° C. OGA was used at a 10 nM (protocol A) or 2 nM (protocol B) concentration and FM-GlcNAc at a 100 uM final concentration. Dilutions were prepared in assay buffer.
# 50 nl of a compound dissolved in DMSO was dispensed on Black Proxiplate™ 384 Plus Assay plates (Perkin Elmer, #6008269) and 3 μl fl-OGA enzyme mix added subsequently. Plates were pre-incubated for 60 min at room temperature and then 2 μl FM-GlcNAc substrate mix added. […] Plates were briefly centrifuged for 1 min at 1000 rpm and incubate at room temperature for 1 h (10 nM OGA, protocol A) or 6 h (2 nM OGA, protocol B). To stop the reaction 5 μl STOP buffer were added and plates centrifuge again 1 min at 1000 rpm. Fluorescence was quantified in the Thermo Scientific Fluoroskan Ascent or the PerkinElmer EnVision with excitation wavelength 485 nm and emission wavelength 538 nm.
# For analysis a best-fit curve is fitted by a minimum sum of squares method. From this an IC50 value and Hill coefficient was obtained. High control (no inhibitor) and low control (saturating concentrations of standard inhibitor) were used to define the minimum and maximum values.
# [3] = Enzymatic protocol B (2 nM OGA, 6 h)
# [4] = Enzymatic protocol A (10 nM OGA, 1 h)
Structure (SMILES),"Emax [2, 3]","IC50 [2, 3]","Enzymatic Emax (%) [2, 3]","Enzymatic hOGA; pIC50 [2, 3]","Emax [2, 4]","IC50 [2, 4]",Emax [1],EC50 [1],Cellular hOGA; pEC50 [1],Cellular Emax (%) [1]
CC(=O)Nc1ncc(CN2CC[C@@H](Cc3cc(C)nc(C)c3)C2)s1 [compound 113],102%,4.47 nM,–,–,–,–,105%,11.2 nM,–,–
CC(=O)Nc1ncc(CN2CC[C@H](Cc3ncc(C)nc3C)C2)s1 [compound 58],101%,3.16 nM,–,–,–,–,90.6%,40.7 nM,–,–
CC(=O)Nc1ncc(CN2CC[C@H](Cc3ccncc3C)C2)s1 [compound 74],–,–,101%,8.01,–,–,–,–,7.34,115.8%
CC(=O)Nc1ncc(CN2CCC[C@H](Nc3cc(C)nc(C)c3)C2)s1 [compound 9],103%,3.72 nM,–,–,–,–,102%,47.9 nM,–,–
CC(=O)Nc1ncc(CN2CC[C@@H](Cc3ncc(C)cc3C(F)(F)F)C2)s1 [compound 35],101%,12.6 nM,–,–,–,–,91.9%,77.6 nM,–,–
CC(=O)Nc1ncc(CN2CC[C@H](Cc3nccc(C)c3C)C2)s1 [compound 70],102%,66.1 nM,–,–,–,–,97.7%,129 nM,–,–
COc1cncc(CC2CCN(Cc3cnc(NC(C)=O)s3)C2)n1 (stereo not shown) [compound 66],–,–,101%,8.53,–,–,–,–,7.43,100.6%
CC(=O)Nc1ncc(CN2CCC(Cc3cncnc3C)C2)s1 (stereo not shown) [compound 103],103%,46.8 nM,–,–,–,–,86.9%,132 nM,–,–
CC(=O)Nc1ncc(CN2CCC[C@H](Cc3cc(C)nc(F)c3)C2)s1 [compound 123],99.2%,2.75 nM,–,–,–,–,90.5%,9.77 nM,–,–
CC(=O)Nc1ncc(CN2CC[C@H](Cc3ncccc3C#N)C2)s1 [compound 45],101%,26.9 nM,–,–,–,–,80.1%,219 nM,–,–

# Continued, in another order:
"Emax [2, 3]","IC50 [2, 3]","Enzymatic Emax (%) [2, 3]","Enzymatic hOGA; pIC50 [2, 3]","Emax [2, 4]","IC50 [2, 4]",Structure (SMILES),Emax [1],EC50 [1],Cellular hOGA; pEC50 [1],Cellular Emax (%) [1]
100%,1.38 nM,–,–,–,–,COc1nc(C)ccc1C[C@H]1CCCN(Cc2cnc(NC(C)=O)s2)C1 [compound 126],97.5%,11.5 nM,–,–
98.3%,53.7 nM,–,–,–,–,CC(=O)Nc1ncc(CN2CC[C@H](Cc3cc(C(F)(F)F)cnc3C)C2)s1 [compound 51],93.5%,123 nM,–,–
100%,14.8 nM,–,–,–,–,CC(=O)Nc1ncc(CN2CC[C@H](Cc3cc(C)c(F)cn3)C2)s1 [compound 52],95.4%,91.2 nM,–,–
–,–,99.4%,7.05,–,–,CC(=O)Nc1ncc(CN2CCC(Cc3cc(C(F)(F)F)ccn3)C2)s1 (stereo not shown) [compound 53],–,–,6.76,85.6%
100%,28.8 nM,–,–,–,–,CC(=O)Nc1ncc(CN2CC[C@H](Cc3nc(C)ccc3C(F)(F)F)C2)s1 [compound 54],75.9%,234 nM,–,–
103%,18.6 nM,–,–,–,–,COc1nc(C)ccc1CC1CCN(Cc2cnc(NC(C)=O)s2)C1 (stereo not shown) [compound 109],115%,52.5 nM,–,–
98.3%,4.27 nM,–,–,–,–,CC(=O)Nc1ncc(CN2CCC[C@H](Cc3ncc(F)cc3F)C2)s1 [compound 121],110%,28.8 nM,–,–
–,–,101%,6.81,–,–,Cc1cc(CC2CCN(C(C)c3ccc4c(c3)OCCO4)C2)cc(C)n1.Cl.Cl (mixture of isomers) [compound 95],–,–,<6,38.2%
101%,9.12 nM,–,–,100%,8.13 nM,CC(=O)Nc1ncc(CN2CCCC(Oc3cc(C)nc(C)c3)C2)s1 (stereo not shown) [compound 14],118%,112 nM,–,–
101%,8.71 nM,–,–,–,–,CC(=O)Nc1ncc(CN2CC[C@H](Cc3cc(C)cc(C)n3)C2)s1 [compound 85],86.9%,46.8 nM,–,–
99.1%,3.09 nM,–,–,–,–,CC(=O)Nc1ncc(CN2CC[C@H](Cc3cnc(C)c(C)c3)C2)s1 [compound 37],87.8%,18.2 nM,–,–
102%,7.94 nM,–,–,–,–,CC(=O)Nc1ncc(CN2CC[C@H](Cc3ccnc(C)c3C)C2)s1 [compound 72],109%,32.4 nM,–,–
102%,3.24 nM,–,–,–,–,CC(=O)Nc1ncc(CN2CCCC(Nc3cc(C)nc(C)c3)C2)s1 (stereo not shown) [compound 31],90.2%,20 nM,–,–
